Assay results: patent US11959486B2, “Stable liquid formulation of AMG 416 (etelcalcetide)” (AMGEN INC., priority 2013, dated 2024)

Assay: Stability of liquid formulations over range of pH 2-6 in succinate-buffered saline, HPLC purity, with extrapolation (Example 3)
Assay type: physicochemical
Description: The solution was divided evenly into five 4 mL portions which were adjusted to pH 2, 3, 4, 5 and 6, respectively, with NaOH and HCl as needed. Three 1 mL solutions were aliquoted from each portion and incubated at 2-8° C., room temperature (about 25° C.), and 40° C., respectively. The remaining 1 mL solution in each aliquot was diluted with pH 4.5 succinate buffered saline to 4 mL of 2.5 mg/mL peptide concentration, pH adjusted, and incubated in the same manner.
Based on the extent of degradation at 28 days, predictions of the extent of degradation were calculated as described, supra. Bolded values indicate conditions which show less than 10% degradation, and which may be preferred for a liquid formulation. Conditions where the sample at 28 days show slightly higher purity than the initial data are presented as 0.0% for all projections.
At each pH value, the degradation data for each of three temperatures is compared to data from the other two temperatures to calculate the observed acceleration. The predicted acceleration is by simple application of Arrhenius principles as described above.

[1] = 2.5 mg/mL, pH 2, from 2-8° C. data
[2] = 2.5 mg/mL, pH 2, from 40° C. data
[3] = 2.5 mg/mL, pH 3, from 2-8° C. data
[4] = 2.5 mg/mL, pH 3, from 40° C. data
[5] = 2.5 mg/mL, pH 4, from 2-8° C. data
[6] = 2.5 mg/mL, pH 4, from 40° C. data
[7] = 2.5 mg/mL, pH 5, from 2-8° C. data
[8] = 2.5 mg/mL, pH 5, from 40° C. data
[9] = 2.5 mg/mL, pH 6, from 2-8° C. data
[10] = 2.5 mg/mL, pH 6, from 40° C. data
[11] = 10 mg/mL, pH 2, from 2-8° C. data
[12] = 10 mg/mL, pH 2, from 40° C. data
[13] = 10 mg/mL, pH 3, from 2-8° C. data
[14] = 10 mg/mL, pH 3, from 40° C. data
[15] = 10 mg/mL, pH 4, from 2-8° C. data
[16] = 10 mg/mL, pH 4, from 40° C. data
[17] = 10 mg/mL, pH 5, from 2-8° C. data
[18] = 10 mg/mL, pH 5, from 40° C. data
[19] = 10 mg/mL, pH 6, from 2-8° C. data
[20] = 10 mg/mL, pH 6, from 40° C. data

CC(=O)N[C@H](CSSC[C@H](N)C(=O)O)C(=O)N[C@H](C)C(=O)N[C@H](CCCNC(=N)N)C(=O)N[C@H](CCCNC(=N)N)C(=O)N[C@H](CCCNC(=N)N)C(=O)N[C@H](C)C(=O)N[C@H](CCCNC(=N)N)C(N)=O [AMG 416, N-acetyl-D-cysteinyl-D-alanyl-D-arginyl-D-arginyl-D-arginyl-D-alanyl-D-arginamide disulfide with L-cysteine]
Observed degradation at 28 days (2.5 mg/mL, pH 2, 2-8° C.): 0.0%
Observed degradation at 28 days (2.5 mg/mL, pH 2, 40° C.): 9.1%
Observed degradation at 28 days (2.5 mg/mL, pH 2, RT): 0.6%
Calculated Degradation 1 y 2-8° C. [1]: 0.0%
Calculated Degradation 1 y RT [1]: 0.0%
Calculated Degradation 2 y 2-8° C. [1]: 0.0%
Calculated Degradation 2 y RT [1]: 0.0%
Calculated Degradation 1 y [2]: 116.5%
Calculated Degradation 1 y RT [2]: 29.1%
Calculated Degradation 2 y 2-8° C. [2]: 14.6%
Calculated Degradation 2 y RT [2]: 58.3%
Calculated Degradation 1 y (2.5 mg/mL, pH 2, from RT data): 7.9%
Calculated Degradation 1 y RT (2.5 mg/mL, pH 2, from RT data): 7.9%
Calculated Degradation 2 y 2-8° C. (2.5 mg/mL, pH 2, from RT data): 4.0%
Calculated Degradation 2 y RT (2.5 mg/mL, pH 2, from RT data): 15.9%
Observed degradation at 28 days (2.5 mg/mL, pH 3, 2-8° C.): 0.0%
Observed degradation at 28 days (2.5 mg/mL, pH 3, 40° C.): 1.8%
Observed degradation at 28 days (2.5 mg/mL, pH 3, RT): 0.0%
Calculated Degradation 1 y 2-8° C. [3]: 0.0%
Calculated Degradation 1 y RT [3]: 0.0%
Calculated Degradation 2 y 2-8° C. [3]: 0.0%
Calculated Degradation 2 y RT [3]: 0.0%
Calculated Degradation 1 y [4]: 22.5%
Calculated Degradation 1 y RT [4]: 5.6%
Calculated Degradation 2 y 2-8° C. [4]: 2.8%
Calculated Degradation 2 y RT [4]: 11.3%
Calculated Degradation 1 y (2.5 mg/mL, pH 3, from RT data): 0.0%
Calculated Degradation 1 y RT (2.5 mg/mL, pH 3, from RT data): 0.0%
Calculated Degradation 2 y 2-8° C. (2.5 mg/mL, pH 3, from RT data): 0.0%
Calculated Degradation 2 y RT (2.5 mg/mL, pH 3, from RT data): 0.0%
Observed degradation at 28 days (2.5 mg/mL, pH 4, 2-8° C.): −0.1%
Observed degradation at 28 days (2.5 mg/mL, pH 4, 40° C.): 6.9%
Observed degradation at 28 days (2.5 mg/mL, pH 4, RT): 0.3%
Calculated Degradation 1 y 2-8° C. [5]: 0.0%
Calculated Degradation 1 y RT [5]: 0.0%
Calculated Degradation 2 y 2-8° C. [5]: 0.0%
Calculated Degradation 2 y RT [5]: 0.0%
Calculated Degradation 1 y [6]: 88.7%
Calculated Degradation 1 y RT [6]: 22.2%
Calculated Degradation 2 y 2-8° C. [6]: 11.1%
Calculated Degradation 2 y RT [6]: 44.3%
Calculated Degradation 1 y (2.5 mg/mL, pH 4, from RT data): 3.6%
Calculated Degradation 1 y RT (2.5 mg/mL, pH 4, from RT data): 3.6%
Calculated Degradation 2 y 2-8° C. (2.5 mg/mL, pH 4, from RT data): 1.8%
Calculated Degradation 2 y RT (2.5 mg/mL, pH 4, from RT data): 7.2%
Observed degradation at 28 days (2.5 mg/mL, pH 5, 2-8° C.): 0.2%
Observed degradation at 28 days (2.5 mg/mL, pH 5, 40° C.): 26.1%
Observed degradation at 28 days (2.5 mg/mL, pH 5, RT): 2.9%
Calculated Degradation 1 y 2-8° C. [7]: 2.9%
Calculated Degradation 1 y RT [7]: 11.8%
Calculated Degradation 2 y 2-8° C. [7]: 5.9%
Calculated Degradation 2 y RT [7]: 23.5%
Calculated Degradation 1 y [8]: 333.6%
Calculated Degradation 1 y RT [8]: 83.4%
Calculated Degradation 2 y 2-8° C. [8]: 41.7%
Calculated Degradation 2 y RT [8]: 166.8%
Calculated Degradation 1 y (2.5 mg/mL, pH 5, from RT data): 37.7%
Calculated Degradation 1 y RT (2.5 mg/mL, pH 5, from RT data): 37.7%
Calculated Degradation 2 y 2-8° C. (2.5 mg/mL, pH 5, from RT data): 18.9%
Calculated Degradation 2 y RT (2.5 mg/mL, pH 5, from RT data): 75.5%
Observed degradation at 28 days (2.5 mg/mL, pH 6, 2-8° C.): 0.8%
Observed degradation at 28 days (2.5 mg/mL, pH 6, 40° C.): 45.0%
Observed degradation at 28 days (2.5 mg/mL, pH 6, RT): 18.1%
Calculated Degradation 1 y 2-8° C. [9]: 10.7%
Calculated Degradation 1 y RT [9]: 43.0%
Calculated Degradation 2 y 2-8° C. [9]: 21.5%
Calculated Degradation 2 y RT [9]: 86.0%
Calculated Degradation 1 y [10]: 575.7%
Calculated Degradation 1 y RT [10]: 143.9%
Calculated Degradation 2 y 2-8° C. [10]: 72.0%
Calculated Degradation 2 y RT [10]: 287.8%
Calculated Degradation 1 y (2.5 mg/mL, pH 6, from RT data): 231.0%
Calculated Degradation 1 y RT (2.5 mg/mL, pH 6, from RT data): 231.0%
Calculated Degradation 2 y 2-8° C. (2.5 mg/mL, pH 6, from RT data): 115.5%
Calculated Degradation 2 y RT (2.5 mg/mL, pH 6, from RT data): 462.1%
predicted degradation over 2 years at RT (2.5 mg/mL, pH range 2-4, extrapolated from the 2-8° C. data): less than 10%
Observed degradation at 28 days (10 mg/mL, pH 2, 2-8° C.): 0.3%
Observed degradation at 28 days (10 mg/mL, pH 2, 40° C.): 5.3%
Observed degradation at 28 days (10 mg/mL, pH 2, RT): 0.6%
Calculated Degradation at 1 y RT [11]: 15.4%
Calculated Degradation at 2 y 5° C. [11]: 7.7%
Calculated Degradation at 2 y RT [11]: 30.7%
Calculated Degradation at 360 d [11]: 3.8%
Calculated Degradation at 1 y RT [12]: 17.1%
Calculated Degradation at 2 y 5° C. [12]: 8.6%
Calculated Degradation at 2 y RT [12]: 34.2%
Calculated Degradation at 360 d [12]: 68.4%
Calculated Degradation at 1 y RT (10 mg/mL, pH 2, from RT data): 8.1%
Calculated Degradation at 2 y 5° C. (10 mg/mL, pH 2, from RT data): 4.0%
Calculated Degradation at 2 y RT (10 mg/mL, pH 2, from RT data): 16.1%
Calculated Degradation at 360 d (10 mg/mL, pH 2, from RT data): 8.1%
Observed degradation at 28 days (10 mg/mL, pH 3, 2-8° C.): −0.2%
Observed degradation at 28 days (10 mg/mL, pH 3, 40° C.): 1.1%
Observed degradation at 28 days (10 mg/mL, pH 3, RT): 0.2%
Calculated Degradation at 1 y RT [13]: 0.0%
Calculated Degradation at 2 y 5° C. [13]: 0.0%
Calculated Degradation at 2 y RT [13]: 0.0%
Calculated Degradation at 360 d [13]: 0.0%
Calculated Degradation at 1 y RT [14]: 3.5%
Calculated Degradation at 2 y 5° C. [14]: 1.8%
Calculated Degradation at 2 y RT [14]: 7.0%
Calculated Degradation at 360 d [14]: 14.1%
Calculated Degradation at 1 y RT (10 mg/mL, pH 3, from RT data): 2.6%
Calculated Degradation at 2 y 5° C. (10 mg/mL, pH 3, from RT data): 1.3%
Calculated Degradation at 2 y RT (10 mg/mL, pH 3, from RT data): 5.1%
Calculated Degradation at 360 d (10 mg/mL, pH 3, from RT data): 2.6%
Observed degradation at 28 days (10 mg/mL, pH 4, 2-8° C.): −0.1%
Observed degradation at 28 days (10 mg/mL, pH 4, 40° C.): 14.3%
Observed degradation at 28 days (10 mg/mL, pH 4, RT): 0.7%
Calculated Degradation at 1 y RT [15]: 0.0%
Calculated Degradation at 2 y 5° C. [15]: 0.0%
Calculated Degradation at 2 y RT [15]: 0.0%
Calculated Degradation at 360 d [15]: 0.0%
Calculated Degradation at 1 y RT [16]: 45.8%
Calculated Degradation at 2 y 5° C. [16]: 22.9%
Calculated Degradation at 2 y RT [16]: 91.7%
Calculated Degradation at 360 d [16]: >100%
Calculated Degradation at 1 y RT (10 mg/mL, pH 4, from RT data): 8.6%
Calculated Degradation at 2 y 5° C. (10 mg/mL, pH 4, from RT data): 4.3%
Calculated Degradation at 2 y RT (10 mg/mL, pH 4, from RT data): 17.1%
Calculated Degradation at 360 d (10 mg/mL, pH 4, from RT data): 8.6%
Observed degradation at 28 days (10 mg/mL, pH 5, 2-8° C.): 0.3%
Observed degradation at 28 days (10 mg/mL, pH 5, 40° C.): 34.9%
Observed degradation at 28 days (10 mg/mL, pH 5, RT): 5.6%
Calculated Degradation at 1 y RT [17]: 13.8%
Calculated Degradation at 2 y 5° C. [17]: 6.9%
Calculated Degradation at 2 y RT [17]: 27.6%
Calculated Degradation at 360 d [17]: 3.5%
Calculated Degradation at 1 y RT [18]: >100%
Calculated Degradation at 2 y 5° C. [18]: 55.9%
Calculated Degradation at 2 y RT [18]: >100%
Calculated Degradation at 360 d [18]: >100%
Calculated Degradation at 1 y RT (10 mg/mL, pH 5, from RT data): 71.4%
Calculated Degradation at 2 y 5° C. (10 mg/mL, pH 5, from RT data): 35.7%
Calculated Degradation at 2 y RT (10 mg/mL, pH 5, from RT data): >100%
Calculated Degradation at 360 d (10 mg/mL, pH 5, from RT data): 71.4%
Observed degradation at 28 days (10 mg/mL, pH 6, 2-8° C.): 1.9%
Observed degradation at 28 days (10 mg/mL, pH 6, 40° C.): 45.1%
Observed degradation at 28 days (10 mg/mL, pH 6, RT): 26.9%
Calculated Degradation at 1 y RT [19]: 95.7%
Calculated Degradation at 2 y 5° C. [19]: 47.8%
Calculated Degradation at 2 y RT [19]: >100%
Calculated Degradation at 360 d [19]: 23.9%
Calculated Degradation at 1 y RT [20]: >100%
Calculated Degradation at 2 y 5° C. [20]: 72.2%
Calculated Degradation at 2 y RT [20]: >100%
Calculated Degradation at 360 d [20]: >100%
Calculated Degradation at 1 y RT (10 mg/mL, pH 6, from RT data): >100%
Calculated Degradation at 2 y 5° C. (10 mg/mL, pH 6, from RT data): >100%
Calculated Degradation at 2 y RT (10 mg/mL, pH 6, from RT data): >100%
Calculated Degradation at 360 d (10 mg/mL, pH 6, from RT data): >100%
extrapolated degradation after 2 years at room temperature (2.5 or 10 mg/mL solutions at pH 3): less than 10%
pH of least degradation (28 day point, 10 and 2.5 mg/mL): approximately 3.0
